Experiment [1] deals with T1, OXA-48 (Klebsiella pneumoniae, UniProt Q6XEC0).
T1 construct: hexahistidine (pOPINF, 3C-cleavable) (N, cleaved yes); made in house; host or cells: E. coli BL21(DE3)
Nature of the experiment: FC5 fluorogenic β-lactamase inhibition assay, OXA-48. In kind it is biochemical. An excerpt:
(§1) To investigate the extent to which cyclic boronates inhibit class C β-lactamases as well as the important class A ESBL and class D carbapenemase targets, we used a fluorogenic assay ([22]) to screen the cyclic boronates, which we have found to inhibit other β-lactamases ([21]), against them. The β-lactamases used for screening included TEM-1 and CTX-M-15 (class A), the metallo-β-lactamase (MBL) from Bacillus cereus (BcII), Verona integron-encoded metallo-β-lactamase 1 (VIM-1) (class B), AmpC from P. aeruginosa (class C), and OXA-23 and OXA-48 (class D), collectively representing all classes of β-lactamase.
(§2) Inhibition assays were carried out using FC5 as a fluorogenic reporter substrate ([22]). Enzyme concentrations and buffers were the same as those employed in steady-state kinetic studies (see Table S2 in the supplemental material). […] The concentration of FC5 employed was 10 μM for TEM-1 and 5 μM for all other enzymes. […] Data at 0 min of incubation were obtained by addition of enzyme to a premixed solution of inhibitor and substrate. Residual enzyme activity was determined for a range of inhibitor concentrations. Nonlinear regression fitting of IC50 curves was carried out using a three-parameter dose-response curve in GraphPad Prism. Errors in IC50 are expressed as [σ(log IC50)/log IC50)] × IC50.
(§3) 45 Steady-state kinetics studies used a Pherastar FS microplate reader with UV-STAR® 96-well,
(§4) 47 black, µclear® plates (Greiner Bio-One) for FC5 (1). Buffers employed were 100 mM
(§5) 48 phosphate buffer pH 7.5, 0.01% (v/v) Triton X-100 for TEM-1, CTX-M-15 and AmpC, 100 mM
(§6) 49 phosphate buffer pH 7.5, 50 mM sodium bicarbonate, 0.01% Triton X-100 for OXA-23 and
(§7) 51 1 µM ZnSO4, 0.01% Triton X-100 for MBL assays. Reaction progress was monitored at 298 K
(§8) 53 intensity (λex = 380 nm, λem = 480 nm) for FC5 (1). Suitable enzyme concentrations for
(§9) 54 kinetic analysis were determined by monitoring changes in absorbance/fluorescence for
(§10) 55 enzyme concentrations between 20 nM and 20 pM.
(§11) Kinetic constants were determined using the initial rate of hydrolysis with the
(§12) 57 reaction initiated through the addition of enzyme to pre-prepared substrate concentrations.
(§13) 58 Substrate concentrations ranged between 400 µM and 0.4 µM. The Michaelis-Menten
(§14) 59 equation was fitted to data by non-linear regression using GraphPad Prism software to
(§15) 60 calculate the Michaelis-Menten constant and the limiting rate (2).

For experiment [2], the target named is T2, OXA-23 (Acinetobacter baumannii, UniProt Q9L4P2).
T2 construct: hexahistidine (pOPINF, 3C-cleavable) (N, cleaved yes); made in house; host or cells: E. coli BL21(DE3)
The experiment is described as follows: FC5 fluorogenic β-lactamase inhibition assay, OXA-23. In kind it is biochemical.
Excerpt: as §1, §2, §3, §4, §5, §6, §7, §8, §9, §10, §11, §12, §13, §14, §15

Experiment [3] concerns the target T3, AmpC from P. aeruginosa (Pseudomonas aeruginosa, UniProt P24735).
T3 construct: hexahistidine (pOPINF, 3C-cleavable) (N, cleaved yes); made in house; host or cells: E. coli BL21(DE3)
Nature of the experiment: FC5 fluorogenic β-lactamase inhibition assay, AmpC. In kind it is biochemical. The settings on record: IC50, nM (mean ± SD) for AmpC, FC5 substrate.
Excerpt: as §1, §2, §3, §4, §5, §6, §7, §8, §9, §10, §11, §12, §13, §14, §15

The target in experiment [4] is T4, CTX-M-15 (Escherichia coli, UniProt Q9EXV5).
T4 construct: hexahistidine (pOPINF, 3C-cleavable) (N, cleaved yes); made in house; host or cells: E. coli BL21(DE3)
The experiment is described as follows: FC5 fluorogenic β-lactamase inhibition assay, CTX-M-15. Particulars: FC5 substrate. Type of experiment: biochemical.
Excerpt: as §1, §2, §3, §4, §5, §6, §7, §8, §9, §10, §11, §12, §13, §14, §15

Experiment [5] concerns P. stuartii PS71. The experiment is described as follows: Broth microtiter dilution MIC, PS71. In kind it is cell-based. Particulars: Providencia stuartii, TEM-1 (A), SHV-5 (A), VEB-1 (A), VIM-1 (B), read-out: MIC (mg/liter) for β-lactam. The method, then: (§16) The in vitro activity of cyclic boronate 2 was assessed using nine clinical isolates carrying multiple β-lactamases (Table 3). The isolates selected included Enterobacteriaceae (E. coli ST 131, Klebsiella pneumoniae ST 258, and Providencia stuartii) producing class A ESBLs (CTX-M-15, CTX-M-27, SHV-5, and VEB-1), serine carbapenemase (KPC-2) and metallo-carbapenemases (VIM-1 and VIM-2), plasmid-mediated AmpC (CMY-2), and/or carbapenem-hydrolyzing OXA-48-like oxacillinases (OXA-181 and OXA-232) in various combinations. The activity against carbapenemase-producing strains of Pseudomonas aeruginosa (VIM-2) and Acinetobacter baumannii (OXA-23) was also investigated. All isolates have previously undergone extensive phenotypic and genotypic characterization ([60]).
(§17) MICs were determined using commercial Sensititre GN4F panels (Thermo Scientific, UK; lot B55051) and Mueller-Hinton II cation-adjusted broth (Oxoid, UK), with and without the addition of cyclic boronate 2 at a fixed concentration of 10 μg/ml. Plates were incubated at 37°C for 18 h and MICs read by eye following the addition of alamarBlue reagent (Trek Diagnostics).

Experiment [6] has as its system A. baumannii AB14. Nature of the experiment: Broth microtiter dilution MIC, AB14. Type of experiment: cell-based. The settings on record: Acinetobacter baumannii, OXA-23 (D), OXA-51 (D), read-out: MIC (mg/liter) for β-lactam. The method, then:
as §16, §17

The subject of experiment [7] is E. coli EC107, ST 131. The experiment is described as follows: Broth microtiter dilution MIC, EC107. Type of experiment: cell-based. Particulars: Escherichia coli, CTX-M-15 (A), OXA-1 (D), with cyclic boronate 2 (10 mg/liter) supplementation, read-out: MIC (mg/liter) for β-lactam. The procedure: as §16, §17
Experiment [8] deals with K. pneumoniae KP58. The experiment is described as follows: Broth microtiter dilution MIC, KP58. In kind it is cell-based. Particulars: Klebsiella pneumoniae, SHV-11 (A), VIM-4 (B), read-out: MIC (mg/liter) for β-lactam. The procedure: as §16, §17
Experiment [9] concerns K. pneumoniae KP15. Nature of the experiment: Broth microtiter dilution MIC, KP15. Type of experiment: cell-based. The settings on record: Klebsiella pneumoniae, TEM-1 (A), SHV-11 (A), KPC-2 (A), read-out: MIC (mg/liter) for β-lactam. The procedure: as §16, §17
Experiment [10] concerns E. coli EC113, ST 131. The experiment is described as follows: Broth microtiter dilution MIC, EC113. Type of experiment: cell-based. Particulars: Escherichia coli, CTX-M-27 (A), with cyclic boronate 2 (10 mg/liter) supplementation, read-out: MIC (mg/liter) for β-lactam. The procedure:
as §16, §17

The test system of experiment [11] is E. coli EC114, ST 131. Nature of the experiment: Broth microtiter dilution MIC, EC114. In kind it is cell-based. The settings on record: Escherichia coli, TEM-1 (A), CTX-M-15 (A), OXA-1 (D), with cyclic boronate 2 (10 mg/liter) supplementation, read-out: MIC (mg/liter) for β-lactam. The procedure:
as §16, §17

For experiment [12], the system named is E. coli EC86. The experiment is described as follows: Broth microtiter dilution MIC, EC86. Type of experiment: cell-based. Particulars: Escherichia coli; E. coli EC86; CTX-M-15 (A), CMY-4 (C), OXA-181 (D); with cyclic boronate 2 (10 mg/liter) supplementation; read-out: MIC (mg/liter) for β-lactam. The procedure:
as §16, §17

Experiment [13] relates to P. aeruginosa PA12, ST 111. Nature of the experiment: Broth microtiter dilution MIC, PA12. In kind it is cell-based. Particulars: Pseudomonas aeruginosa, VIM-2 (B), read-out: MIC (mg/liter) for β-lactam. The procedure:
as §16, §17

The test system of experiment [14] is K. pneumoniae KP41. Nature of the experiment: Broth microtiter dilution MIC, KP41. In kind it is cell-based. The settings on record: Klebsiella pneumoniae, TEM-1, SHV-1, SHV-5, SHV-11, CTX-M-15 (A), OXA-232 (D), read-out: MIC (mg/liter) for β-lactam. The method, then:
as §16, §17

Where [15] appears, read: with cyclic boronate 2 (10 mg/liter) supplementation.
[16] abbreviates: without cyclic boronate 2 supplementation.

Where two headings read alike, the source gives them in different places. Where only a bound is given, the exact number is not on record here.

The IC50 is the midpoint of a concentration-inhibition curve.

T4 sequence (Q9EXV5 entry or part of it): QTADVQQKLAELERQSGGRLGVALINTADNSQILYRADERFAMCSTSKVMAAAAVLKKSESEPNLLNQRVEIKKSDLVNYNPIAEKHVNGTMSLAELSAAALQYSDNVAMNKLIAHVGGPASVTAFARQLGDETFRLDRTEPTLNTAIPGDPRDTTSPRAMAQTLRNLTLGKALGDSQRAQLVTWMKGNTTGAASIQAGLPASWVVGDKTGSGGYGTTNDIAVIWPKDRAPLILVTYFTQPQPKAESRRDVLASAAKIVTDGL
T1 sequence (Q6XEC0 23-265 limits assumed): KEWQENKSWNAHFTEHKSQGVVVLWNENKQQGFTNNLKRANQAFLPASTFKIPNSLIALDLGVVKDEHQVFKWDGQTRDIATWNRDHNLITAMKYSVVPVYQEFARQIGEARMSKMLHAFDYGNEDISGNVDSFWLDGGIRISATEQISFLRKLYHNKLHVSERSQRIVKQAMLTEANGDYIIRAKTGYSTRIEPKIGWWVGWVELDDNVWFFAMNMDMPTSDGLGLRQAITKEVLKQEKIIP
T3 sequence (P24735 27-397): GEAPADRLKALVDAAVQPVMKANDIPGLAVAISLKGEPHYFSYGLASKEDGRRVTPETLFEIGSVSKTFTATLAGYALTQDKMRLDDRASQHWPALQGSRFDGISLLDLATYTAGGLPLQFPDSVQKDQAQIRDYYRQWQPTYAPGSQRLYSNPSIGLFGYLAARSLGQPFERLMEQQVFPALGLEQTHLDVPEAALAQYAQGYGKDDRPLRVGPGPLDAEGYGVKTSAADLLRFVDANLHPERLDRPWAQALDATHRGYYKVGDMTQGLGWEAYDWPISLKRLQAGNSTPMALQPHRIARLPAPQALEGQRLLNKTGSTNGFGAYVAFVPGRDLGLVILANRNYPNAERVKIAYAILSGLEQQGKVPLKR
T2 sequence (Q9L4P2 18-273): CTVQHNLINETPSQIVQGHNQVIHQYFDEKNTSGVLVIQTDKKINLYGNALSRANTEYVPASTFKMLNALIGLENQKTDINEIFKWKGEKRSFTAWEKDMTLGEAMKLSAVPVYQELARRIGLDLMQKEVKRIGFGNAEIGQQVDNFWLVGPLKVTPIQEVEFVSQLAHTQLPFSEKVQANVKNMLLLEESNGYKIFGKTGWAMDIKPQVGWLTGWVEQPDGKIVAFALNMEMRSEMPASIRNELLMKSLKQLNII

Regarding `CC1(C)[C@H](C(=O)O)N2C(=O)C[C@H]2S1(=O)=O` [Sulbactam, sulbactam], the concentration for half-maximal inhibition (IC50) in experiment [1] was above 200000 nM; in experiment [1] (read-out: IC50, nM (mean ± SD) for OXA-48, preincubation 10 min, FC5 substrate) it was above 200000 nM; in experiment [1] (read-out: IC50, nM (mean ± SD) for OXA-48, preincubation 30 min, FC5 substrate), above 200000 nM; in experiment [1] (read-out: IC50, nM (mean ± SD) for OXA-48, preincubation 60 min, FC5 substrate) it was above 200000 nM; in [1] (read-out: IC50, nM (mean ± SD) for OXA-48, preincubation 360 min, FC5 substrate), above 200000 nM; in experiment [2], above 200000 nM. Also, the IC50 in [2] (read-out: IC50, nM (mean ± SD) for OXA-23, preincubation 10 min, FC5 substrate) was above 200000 nM; in experiment [2] (read-out: IC50, nM (mean ± SD) for OXA-23, preincubation 30 min, FC5 substrate) it was above 200000 nM; in experiment [2] (read-out: IC50, nM (mean ± SD) for OXA-23, preincubation 60 min, FC5 substrate), above 200000 nM; in [2] (read-out: IC50, nM (mean ± SD) for OXA-23, preincubation 360 min, FC5 substrate), above 200000 nM; in [3] (preincubation 0 min) it was above 200000 nM; in [3] (preincubation 10 min), 42000 nM. Besides, the half-inhibitory concentration (IC50) was determined as 8600 nM in [3] (preincubation 30 min); 4400 nM in experiment [3] (preincubation 60 min); 1000 nM in [3] (preincubation 360 min); 44 ± 1 nM in experiment [4] (IC50, nM (mean ± SD) for CTX-M-15, preincubation 0 min); 29 ± 1 nM in [4] (IC50, nM (mean ± SD) for CTX-M-15, preincubation 10 min); 28 ± 7 nM in experiment [4] (IC50, nM (mean ± SD) for CTX-M-15, preincubation 30 min). Moreover, the IC50 in experiment [4] (IC50, nM (mean ± SD) for CTX-M-15, preincubation 60 min) was determined as 32 ± 0.3 nM; in experiment [4] (IC50, nM (mean ± SD) for CTX-M-15, preincubation 360 min), 16.6 ± 0.1 nM.

Regarding `CO/N=C(\C(=O)N[C@@H]1C(=O)N2C(C(=O)[O-])=C(C[N+]3(C)CCCC3)CS[C@H]12)c1csc(N)n1` [FEP, cefepime], the MIC is 8 mg/L in experiment [5] (setting [15]); above 32 mg/L in experiment [5] (setting [16]); 32 mg/L in [6] (setting [15]); above 32 mg/L in [6] (setting [16]); 8 mg/L in experiment [7]; above 32 mg/L in [8] (setting [15]). The MIC is above 32 mg/L in experiment [8] (setting [16]); at most 4 mg/L in experiment [9] (setting [15]); above 32 mg/L in experiment [9] (setting [16]); at most 4 mg/L in experiment [10]; 8 mg/L in experiment [11]; at most 4 mg/L in experiment [12]. Further, the MIC in experiment [13] (setting [15]) was above 32 mg/L; in experiment [13] (setting [16]), above 32 mg/L; in experiment [14] (setting [15]) it was 32 mg/L; in experiment [14] (setting [16]), above 32 mg/L.

Source of the values: publication PMC5365654, “Cyclic Boronates Inhibit All Classes of β-Lactamases” (Antimicrobial Agents and Chemotherapy, 2017).
